Legend:
Type in all cases: cell-based, human
[1] = tested on: cAMP levels in B-CLL cells; assay: cAMP RIA, B-CLL cells; details: 10 μM rolipram for 30 minutes; six B-CLL patients; p<0.04
Method: (§1) Leukemic cells from six B-CLL patients or CCRF-CEM cells were incubated for 30 minutes with media alone (CT), 10 μM rolipram (Roli), 10 μM forskolin (Fsk), 1 μM hydrocortisone (HC), or the same concentration of hydrocortisone combined with rolipram (Roli/HC) or forskolin (Fsk/HC). Lysates of the cells were then assayed for cAMP using a RIA. The cAMP level obtained from each treated B-CLL sample was normalized to that observed in the untreated leukemic cells. The CCRF-CEM data shown are representative of three experiments performed.
(§2) 500,000 B-CLL or CCRF-CEM cells were incubated for 30 minutes in one mL media alone or with the addition of drugs. Cells were centrifuged and lysed in 80% ethanol. After vortexing and incubation on ice for 10 minutes, cellular debris was removed by re-centrifugation. The supernatant was dried in a Speedivac and the sample brought up in 250 μL of sample buffer as provided by the makers of a cAMP RIA kit (Amersham). 100 μL of this sample was used for each cAMP assay. The RIA kit was used according to the manufacturer's instructions.

[2] = tested on: PDE4A, PDE4B or PDE4D expression in CCRF-CEM cells; assay: Western analysis of PDE4 isoforms, CCRF-CEM cells; details: rolipram
Method: B-CLL and CCRF-CEM cells were incubated for 18 hours with media alone, 10 μM rolipram, 10 μM forskolin (Fsk), 1 μM hydrocortisone (HC), or the same concentration of rolipram combined with 1 μM hydrocortisone (Roli+HC) or 10 μM forskolin (Roli+Fsk). Lysates of the cells were then assessed for expression of PDE4A, PDE4B or PDE4D by Western analysis. Equal loading of samples was verified by immunoblotting for tubulin.
30 million B-CLL cells or 10 million CCRF-CEM cells were incubated for 18 hours in media alone or with the addition of drugs as indicated in the text. Western analysis was then carried out as previously described^30.

[3] = tested on: cAMP levels in CCRF-CEM cells; assay: cAMP RIA, CCRF-CEM cells; details: 30 minutes, 10 μM rolipram, 10 μM forskolin, 1 μM hydrocortisone, three experiments
Method: as §1, §2

[4] = tested on: B-CLL cells; assay: Hoechst 33342 apoptosis assay, B-CLL cells; details: for apoptosis by Hoechst 33342 analysis: 48 hrs culture, Roli 10 μM, HC 1 μM
Method: FIGS. 1A-D show the effects of the cyclic nucleotide phosphodiesterase inhibitors rolipram, RO20-1724 and cilostamide on hydrocortisone and dexamethasone-induced apoptosis in B-CLL. In FIG. 1A, leukemic cells from 11 B-CLL patients were assessed for apoptosis by […] analysis after 48 hrs culture in media alone (No treatment), 10 μM rolipram (Roli), 1 μM hydrocortisone (HC) or a combination of the two drugs (Roli+HC). In FIGS. 1B and 1C, leukemic cells from five patients with B-CLL were cultured in media alone or with a dose titration of hydrocortisone (1B: solid line) or dexamethasone (1C: solid line), followed by assessment for apoptosis by Hoechst 33342 FACS analysis at 48 hours. Using the same experimental conditions, the effect of addition of 10 μM rolipram (thick dashed line) to the glucocorticoids was also assessed. In FIG. 1D, the apoptotic effects of the PDE4 inhibitor RO20-1724 (RO20) (10 μM) or the PDE3 inhibitor cilostamide (Cilost) (10 μM) were assessed on B-CLL cells when combined with 1 μM hydrocortisone. Data represent the mean±SEM of triplicate samples.
Blood samples were obtained by IRB-approved consent from flow cytometry-confirmed B-CLL patients that were either untreated or for whom at least one month had elapsed since chemotherapy. Patients with active infections or other serious medical conditions were not included in this study.
CCRF-CEM cells were obtained from ATCC^27. Leukemic or normal mononuclear cells were obtained by centrifugation over Histopaque 1077 (Sigma Chemical Company, St. Louis, Mo.). For purification of T cells, whole mononuclear cells from normal subjects were incubated with magnetic beads coated with appropriate antibodies, then positively purified using a magnet (Miltenyi). Cells were cultured in RPMI 1640 media (Biowhittaker, Walkersville, Md.) supplemented with 10% fetal calf serum, 50 μMol/L 2-mercaptoethanol, 2 mMol/L L-glutamine, 10 mM Hepes pH 7.4, […] (Sigma Chemical Company, St. Louis, Mo.). For isolation of glucocorticoid resistant clones, parental CCRF-CEM cells were treated with 1 μM dexamethasone for 10 days, and surviving cells diluted to ≦one cell/well in a 96-well flat-bottom tissue culture plate, grown for three weeks in media supplemented with 20% fetal calf serum and 1% insulin-transferrin-selenium (GIBCO), and then transferred to regular growth medium. […] For isolation of glucocorticoid-sensitive clones, the same procedure was used, except that treatment with dexamethasone was omitted. A glucocorticoid-sensitive subclone (CEM-S2) was inhibited in its survival by dexamethasone with an IC50=0.007 μM.
Hoechst 33342 and DiOC6(3) apoptosis assays were performed as previously described^22,28. For CCRF-CEM cell survival assays, cells were plated at a density of 3×10^4/well in 96-well flat-bottom plates in the presence of test reagents or vehicle in 0.1 mL media. Following incubation for 72 hrs, 20 μl of a 20:1 MTS (2 mg/mL)/PMS (0.92 mg/ml) solution was added to each well, and the plates incubated for 2 hrs at 37°. The absorbance (O.D.) of the formazan product was determined at 492 nm using a plate reader (Titertek Multiscan Plus, Labsystems). Percent cell viability was calculated as follows: (O.D. control sample−O.D. blank)/(O.D. test sample−O.D. blank)×100. All assays were performed in triplicate.

[5] = tested on: CD3+ CD4+ Sezary cells; assay: Hoechst 33342 apoptosis assay, Sezary cells; details: 10 μM rolipram or 1 μM hydrocortisone; one patient
Method: (§3) Magnetic bead purified peripheral blood T cells or leukemic cells from patients with B-CLL or Sezary syndrome were cultured in media alone or with a dose titration of hydrocortisone (solid line), followed by assessment for apoptosis by Hoechst 33342 FACS analysis at 48 hours. Using the same experimental conditions, the effect of addition of 10 μM rolipram (thick dashed line) or 10 μM rolipram and 40 μM forskolin (dotted line) was also assessed. The SEM of triplicate samples is shown; where not visible, the SEM was less than 1.0%.
(§4) CCRF-CEM cells were obtained from ATCC^27. Leukemic or normal mononuclear cells were obtained by centrifugation over Histopaque 1077 (Sigma Chemical Company, St. Louis, Mo.). For purification of T cells, whole mononuclear cells from normal subjects were incubated with magnetic beads coated with appropriate antibodies, then positively purified using a magnet (Miltenyi). […]
(§5) Hoechst 33342 and DiOC6(3) apoptosis assays were performed as previously described^22,28. […] The absorbance (O.D.) of the formazan product was determined at 492 nm using a plate reader (Titertek Multiscan Plus, Labsystems). Percent cell viability was calculated as follows: (O.D. control sample−O.D. blank)/(O.D. test sample−O.D. blank)×100. […]

[6] = tested on: peripheral blood T cells; assay: Hoechst 33342 apoptosis assay, peripheral blood T cells; details: 10 μM rolipram
Method: as §3, §4, §5

COc1ccc(C2CNC(=O)C2)cc1OC1CCCC1 (stereo not shown) [rolipram, 4-(3-cyclopentyloxy-4-methoxyphenyl)-2-pyrrolidone]
cAMP levels above that observed in untreated cells [1]: 2.5±0.7 fold
induction of PDE4 isoforms [2]: nor induced any PDE4 isoform
effect on cAMP levels [3]: no effect
B-CLL apoptosis, rolipram added to dexamethasone ([4]; 10 μM rolipram + dexamethasone dose titration, 48 hours): augmented B-CLL apoptosis beyond the levels observed with either agent alone
apoptosis by Hoechst 33342 analysis ([4]; B-CLL patient #1, No Rx 10): 17%
apoptosis by Hoechst 33342 analysis ([4]; B-CLL patient #2, No Rx 11): 13%
apoptosis by Hoechst 33342 analysis ([4]; B-CLL patient #3, No Rx 13): 24%
apoptosis by Hoechst 33342 analysis ([4]; B-CLL patient #4, No Rx 23): 34%
apoptosis by Hoechst 33342 analysis ([4]; B-CLL patient #5, No Rx 25): 37%
apoptosis by Hoechst 33342 analysis ([4]; B-CLL patient #6, No Rx 27): 45%
apoptosis by Hoechst 33342 analysis ([4]; B-CLL patient #7, No Rx 31): 67%
apoptosis by Hoechst 33342 analysis ([4]; B-CLL patient #8, No Rx 33): 62%
apoptosis by Hoechst 33342 analysis ([4]; B-CLL patient #9, No Rx 35): 81%
apoptosis by Hoechst 33342 analysis ([4]; B-CLL patient #10, No Rx 44): 58%
apoptosis by Hoechst 33342 analysis ([4]; B-CLL patient #11, No Rx 61): 75%
augmentation of induction of apoptosis relative to the increment induced with 100 μM hydrocortisone alone ([4]; addition of 10 μM rolipram to 100 μM hydrocortisone, five patients): 40±18%
apoptotic effect used separately on Sezary leukemic cells [5]: little effect
augmentation of the apoptotic effect of 1 μM hydrocortisone on T cells [6]: failed to augment
induction of apoptosis in peripheral blood T cells [6]: failed to induce apoptosis

Reference: patent US20080051379A1, “Compositions and Methods for the Treatment of Peripheral B-Cell Neoplasms” (Trustees of Boston University, priority 2004, published 2008)
